In US7820650B2, “Antifungal 4-substituted 5,6-dihydro-4H-pyrrolo [1,2-a][1,4]benzodiazepines” (Janssen Pharmaceutica NV, priority 2000, dated 2010):

How the values were obtained:
Test in all cases: Determination of fungal susceptibility (MIC, microdilution in CYG medium)
Assay type in all cases: cell-based
Cryptococcus neoformans = settings: single isolate, 5 days at 30° C., growth (OD 405 nm) inhibited to 35% of control or less
Description: (§1) A panel single isolates of the dermatophytes Sporothrix schenckii; Microsporum canis; Trichophyton rubrum; Trichophyton mentagrophyte; Candida parapsilosis; Cryptococcus neoformans; and Aspergillus fumigatus were used to evaluate the activity of the test compounds in vitro. Inocula were prepared as broth cultures (yeasts) or as suspensions of fungal material made from agar slope cultures (moulds). The test compounds were pipetted from dimethylsulfoxide stock solution into water to provide a series of 10-fold dilutions. The fungal inocula were suspended in the growth medium CYG (F.C. Odds, Journal of Clinical Microbiology, 29, 2735-2740, 1991) at approximately 50,000 colony-forming units (CFU) per ml and added to the aqueous test drugs. The cultures were set up in the 96 wells of plastic microdilution plates and they were incubated for 2 days at 37° C. (Candida spp.) or for 5 days at 30° C. (other fungi). Growth in the microcultures was measured by their optical density (OD) measured at a wavelength of 405 nm. The OD for cultures with test compounds was calculated as a percentage of the OD for control cultures, i.e. the OD for cultures without test compounds. Inhibition of growth to 35% of control or less was recorded as significant inhibition. Minimal inhibitory concentration (MIC; in 10^−6 M) of some of the compounds of formula (I) for the tested species are listed in Table.

Candida parapsilosis = settings: single isolate, 2 days at 37° C., growth (OD 405 nm) inhibited to 35% of control or less
Description: as §1

Microsporum canis = settings: single isolate, 5 days at 30° C., growth (OD 405 nm) inhibited to 35% of control or less
Description: as §1

Sporothrix schenckii = settings: single isolate, 5 days at 30° C., growth (OD 405 nm) inhibited to 35% of control or less
Description: as §1

[1] = system: Trichophyton mentagrophytes; settings: single isolate, 5 days at 30° C., growth (OD 405 nm) inhibited to 35% of control or less
Description: as §1

Trichophyton rubrum = settings: single isolate, 5 days at 30° C., growth (OD 405 nm) inhibited to 35% of control or less
Description: as §1

Aspergillus fumigatus = settings: single isolate, 5 days at 30° C., growth (OD 405 nm) inhibited to 35% of control or less
Description: as §1

| SMILES | MIC values, Cryptococcus neoformans (Cryptococcus neoformans) | MIC values, Candida parapsilosis (Candida parapsilosis) | MIC values, Microsporum canis (Microsporum canis) | MIC values, Sporothrix schenkii (Sporothrix schenckii) | MIC values, Trichophyton mentagrophytes [1] | MIC values, Trichophyton rubrum (Trichophyton rubrum) | MIC values, Aspergillus fumigatus (Aspergillus fumigatus) |
| --- | --- | --- | --- | --- | --- | --- | --- |
| Br.FC(F)(F)c1cccc(C2NCc3c(Cl)cccc3-n3cccc32)c1 (stereo not drawn) [Comp. 3] | >10 10^−6 M | >10 10^−6 M | 2.1 10^−6 M | >10 10^−6 M | 3.2 10^−6 M | 2.1 10^−6 M | 10 10^−6 M |
| Br.Cc1ccc(C2NCc3ccc(Cl)cc3-n3cccc32)cc1 (stereo not drawn) [Comp. 19] | >10 10^−6 M | >10 10^−6 M | 10 10^−6 M | >10 10^−6 M | 3.2 10^−6 M | 0.32 10^−6 M | >10 10^−6 M |
| Br.CCc1ccc(C2NCc3c(Cl)cccc3-n3cccc32)cc1 (stereo not drawn) [Comp. 2] | >10 10^−6 M | 1 10^−6 M | 0.32 10^−6 M | >10 10^−6 M | 0.32 10^−6 M | 0.03 10^−6 M | 3.2 10^−6 M |
| Br.CCCCc1ccc(C2NCc3c(Cl)cccc3-n3cccc32)cc1 (stereo not drawn) [Comp. 8] | >10 10^−6 M | >10 10^−6 M | 1 10^−6 M | >10 10^−6 M | 1 10^−6 M | 0.1 10^−6 M | >10 10^−6 M |
| CCc1ccc(C2NCc3cc(Cl)ccc3-n3cccc32)cc1 (stereo not drawn) [Comp. 11] | >10 10^−6 M | >10 10^−6 M | >10 10^−6 M | >10 10^−6 M | 3.2 10^−6 M | 3.2 10^−6 M | >10 10^−6 M |
| Br.CC(C)c1ccc(C2NCc3c(Cl)cccc3-n3cccc32)cc1 (stereo not drawn) [Comp. 6] | >10 10^−6 M | 10 10^−6 M | 0.32 10^−6 M | >10 10^−6 M | 1 10^−6 M | 0.32 10^−6 M | >10 10^−6 M |
| Br.COc1ccc(C2NCc3c(Cl)cccc3-n3cccc32)cc1 (stereo not drawn) [Comp. 1] | >10 10^−6 M | >10 10^−6 M | 5.5 10^−6 M | >10 10^−6 M | 2.1 10^−6 M | 2.1 10^−6 M | 10 10^−6 M |
| Br.CCc1ccc(C2NCc3ccccc3-n3cccc32)cc1 (stereo not drawn) [Comp. 13] | >10 10^−6 M | >10 10^−6 M | >10 10^−6 M | >10 10^−6 M | 3.2 10^−6 M | 1 10^−6 M | >10 10^−6 M |
| CCc1ccc(C2=NCc3ccccc3-n3cccc32)cc1 [Comp. 21] | >10 10^−6 M | 3.2 10^−6 M | 0.32 10^−6 M | 10 10^−6 M | 0.32 10^−6 M | 0.03 10^−6 M | 1 10^−6 M |
| Br.CC(C)c1ccc(C2NCc3ccc(Cl)cc3-n3cccc32)cc1 (stereo not drawn) [Comp. 18] | >10 10^−6 M | >10 10^−6 M | >10 10^−6 M | >10 10^−6 M | 1 10^−6 M | 1 10^−6 M | >10 10^−6 M |
| CCc1ccc(C2NCc3c(F)cccc3-n3cccc32)cc1 (stereo not drawn) [Comp. 15] | >10 10^−6 M | 10 10^−6 M | 3.2 10^−6 M | >10 10^−6 M | 1 10^−6 M | 0.32 10^−6 M | 10 10^−6 M |
| CC(C)c1ccc(C2NCc3c(F)cccc3-n3cccc32)cc1 (stereo not drawn) [Comp. 14] | >10 10^−6 M | >10 10^−6 M | 10 10^−6 M | >10 10^−6 M | 1 10^−6 M | 0.32 10^−6 M | >10 10^−6 M |
| Br.CC(C)c1ccc(C2NCc3ccccc3-n3cccc32)cc1 (stereo not drawn) [Comp. 4] | >10 10^−6 M | >10 10^−6 M | 10 10^−6 M | >10 10^−6 M | 3.2 10^−6 M | 3.2 10^−6 M | >10 10^−6 M |
| Br.CCCc1ccc(C2NCc3c(Cl)cccc3-n3cccc32)cc1 (stereo not drawn) [Comp. 9] | >10 10^−6 M | 3.2 10^−6 M | 0.32 10^−6 M | >10 10^−6 M | 0.32 10^−6 M | 0.1 10^−6 M | >10 10^−6 M |
| Br.CCc1ccc(C2NCc3ccc(Cl)cc3-n3cccc32)cc1 (stereo not drawn) [Comp. 16] | >10 10^−6 M | >10 10^−6 M | 1 10^−6 M | >10 10^−6 M | 1 10^−6 M | 0.1 10^−6 M | >10 10^−6 M |
| Br.Clc1cccc2c1CNC(c1ccsc1)c1cccn1-2 (stereo not drawn) [Comp. 12] | >10 10^−6 M | >10 10^−6 M | >10 10^−6 M | >10 10^−6 M | >10 10^−6 M | 3.2 10^−6 M | >10 10^−6 M |
| Br.CCOc1ccc(C2NCc3ccc(Cl)cc3-n3cccc32)cc1 (stereo not drawn) [Comp. 17] | >10 10^−6 M | >10 10^−6 M | >10 10^−6 M | >10 10^−6 M | 10 10^−6 M | 10 10^−6 M | >10 10^−6 M |
| Br.N#Cc1ccc(C2NCc3ccc(Cl)cc3-n3cccc32)cc1 (stereo not drawn) [Comp. 20] | >10 10^−6 M | >10 10^−6 M | >10 10^−6 M | >10 10^−6 M | >10 10^−6 M | 0.32 10^−6 M | >10 10^−6 M |
| Br.Cc1ccc(C2NCc3c(Cl)cccc3-n3cccc32)cc1 (stereo not drawn) [Comp. 5] | >10 10^−6 M | >10 10^−6 M | 1 10^−6 M | >10 10^−6 M | 1 10^−6 M | 0.32 10^−6 M | >10 10^−6 M |
| Br.CC(C)(C)c1ccc(C2NCc3c(Cl)cccc3-n3cccc32)cc1 (stereo not drawn) [Comp. 7] | >10 10^−6 M | 10 10^−6 M | 0.32 10^−6 M | 10 10^−6 M | 1 10^−6 M | 0.1 10^−6 M | >10 10^−6 M |
| CCc1ccc(C2c3cccn3-c3cccc(Cl)c3CN2C)cc1 (stereo not drawn) [Comp. 10, 4-(4′-ethylphenyl)-5-methyl-7-chlorobenzo[1,2]-pyrrolo-[1,2a][1,4]diazepine] | >10 10^−6 M | >10 10^−6 M | >10 10^−6 M | >10 10^−6 M | 10 10^−6 M | 3.2 10^−6 M | >10 10^−6 M |
